One molecule from article PMC6511943, “Structure-Guided Drug Design of 6-Substituted Adenosine Analogues as Potent Inhibitors of Mycobacterium tuberculosis Adenosine Kinase” (Journal of Medicinal Chemistry, 2019) can be followed below.

Each structure is given as a SMILES string.

The test system of the experiment is Mtb H37Rv-resistant mutants (adoK D251N, Q172P, G262S). The format is cell-based, Mycobacterium tuberculosis.

In the case of `Nc1ncnc2c1c(I)cn2[C@@H]1O[C@H](CO)[C@@H](O)[C@H]1O` [Compound 2, Iodotubercidin], the MIC was > 100 µM.

By MIC is commonly meant the least concentration at which growth counts as inhibited. The low end stands for greater potency, the high end for weaker potency.
